According to ChEMBL document CHEMBL1201862, “PubChem BioAssay data set” (2004):
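Each compound was tested at five concentrations against cells in 96-well plates for 48 hours. Abbreviation: GI50, concentration required for 50% inhibition of growth.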 Calls of active or inactive are those of the source. Rule as the data show it: active = GI50 up to about 1.1 µM and inactive = higher.

Assays:
Test in all cases: growth of human tumour cells (NCI), 48 h
NCI-H23 = tested on: NCI-H23
NCI-H460 = tested on: NCI-H460
NCI/ADR-RES = tested on: NCI/ADR-RES
MCF7 = tested on: MCF7
HT-29 = tested on: HT-29
M14 = tested on: M14
NCI-H522 = tested on: NCI-H522
K562 = tested on: K562
A549 = tested on: A549
IGROV-1 = tested on: IGROV-1
SK-MEL-2 = tested on: SK-MEL-2
DU-145 = tested on: DU-145
UO-31 = tested on: UO-31
BT-549 = tested on: BT-549
CAKI-1 = tested on: CAKI-1
Malme-3M = tested on: Malme-3M
UACC-257 = tested on: UACC-257
Hs-578T = tested on: Hs-578T
NCI-H226 = tested on: NCI-H226

Measured: GI50

COC(=O)CC(c1ccccc1)C(C#N)(OP1(=O)OC(c2ccccc2)C(C)N1C)c1ccccc1 (centres undefined)
inactive: NCI-H23 57.3 µM | NCI-H460 41.1 µM | NCI/ADR-RES 50.5 µM | MCF7 37.2 µM | HT-29 46.8 µM | M14 60 µM | NCI-H522 35 µM | K562 26.2 µM | A549 35.2 µM | IGROV-1 71.9 µM | SK-MEL-2 27.9 µM | DU-145 > 100 µM | UO-31 11.1 µM | BT-549 64.4 µM | CAKI-1 72.1 µM | Malme-3M 56.1 µM | UACC-257 34.9 µM | Hs-578T > 100 µM

CCCNC(=O)Cn1c2c(c3ccccc31)CCCC2
inactive: NCI-H23 72.3 µM | NCI-H460 58.2 µM | NCI/ADR-RES 50.9 µM | MCF7 > 100 µM | HT-29 > 100 µM | M14 > 100 µM | K562 73.1 µM | A549 53.8 µM | IGROV-1 > 100 µM | SK-MEL-2 > 100 µM | UO-31 20 µM | BT-549 87.7 µM | CAKI-1 77.1 µM | Malme-3M > 100 µM | UACC-257 94 µM | Hs-578T 23.1 µM

CCOC(=O)c1cc(Br)c(-c2cc(C)co2)[nH]1
inactive: NCI-H23 > 100 µM | NCI-H460 > 100 µM | NCI/ADR-RES > 100 µM | MCF7 > 100 µM | NCI-H226 > 100 µM | HT-29 > 100 µM | M14 > 100 µM | K562 69.8 µM | A549 > 100 µM | IGROV-1 66.1 µM | SK-MEL-2 > 100 µM | DU-145 > 100 µM | UO-31 66.7 µM | BT-549 > 100 µM | CAKI-1 > 100 µM | Malme-3M > 100 µM | UACC-257 > 100 µM | Hs-578T 84.5 µM

[N-]=[N+]=Nc1cc(=O)[nH]c2ccccc12
inactive: NCI-H23 > 100 µM | NCI/ADR-RES > 100 µM | MCF7 52 µM | NCI-H226 45.9 µM | HT-29 > 100 µM | M14 > 100 µM | NCI-H522 > 100 µM | K562 > 100 µM | A549 > 100 µM | IGROV-1 31.9 µM | SK-MEL-2 > 100 µM | UO-31 31.4 µM | BT-549 83.2 µM | CAKI-1 > 100 µM | Malme-3M 94.6 µM | UACC-257 > 100 µM | Hs-578T 44.3 µM

COc1ccc(/C=C2\CCC(C)c3c2nc(N)c(C#N)c3-c2ccc(OC)c(OC)c2)cc1OC (centres undefined)
inactive: NCI-H23 5.6 µM | NCI/ADR-RES 6.73 µM | MCF7 5.65 µM | NCI-H226 5.7 µM | HT-29 6.25 µM | M14 32.3 µM | K562 12 µM | IGROV-1 15.1 µM | SK-MEL-2 2.42 µM | DU-145 20.7 µM | UO-31 3.16 µM | BT-549 8 µM | CAKI-1 58.5 µM | Malme-3M 16.5 µM | UACC-257 1.96 µM | Hs-578T 9.16 µM

Cc1ccc2c(c1)-c1nc(N)c(C#N)c(-c3ccccc3)c1CCS2(=O)=O
inactive: NCI-H23 87.9 µM | NCI-H460 75.2 µM | NCI/ADR-RES 38.5 µM | NCI-H226 24.3 µM | HT-29 > 100 µM | M14 > 100 µM | NCI-H522 39.2 µM | K562 > 100 µM | A549 55 µM | IGROV-1 31.3 µM | SK-MEL-2 45.8 µM | DU-145 65.2 µM | UO-31 > 100 µM | BT-549 36.4 µM | CAKI-1 49.3 µM | Malme-3M 23.8 µM | UACC-257 44.9 µM | Hs-578T 20.8 µM

COC1CC2C=CC3C4OC2(/C(C)=C/C(C)C(C(C)O)OC1=O)C3C(O)C(C)C4OC(=O)c1ccc[nH]1 (centres undefined)
inactive: NCI-H23 > 100 µM | NCI-H460 67 µM | NCI/ADR-RES 66.2 µM | MCF7 94.4 µM | HT-29 66.8 µM | M14 > 100 µM | NCI-H522 > 100 µM | A549 > 100 µM | IGROV-1 > 100 µM | SK-MEL-2 > 100 µM | DU-145 82 µM | UO-31 > 100 µM | BT-549 81.5 µM | CAKI-1 > 100 µM | UACC-257 57.8 µM | Hs-578T 94 µM

COC(=O)/C(=N\NC(=S)NN)C(C(=O)OC)C(=O)C(=O)Nc1cccc(C(F)(F)F)c1 (centres undefined)
inactive: NCI-H23 > 100 µM | NCI-H460 > 100 µM | NCI/ADR-RES > 100 µM | MCF7 > 100 µM | NCI-H226 > 100 µM | HT-29 > 100 µM | M14 > 100 µM | NCI-H522 > 100 µM | A549 > 100 µM | IGROV-1 > 100 µM | SK-MEL-2 > 100 µM | UO-31 > 100 µM | BT-549 > 100 µM | CAKI-1 > 100 µM | Malme-3M > 100 µM | UACC-257 > 100 µM | Hs-578T > 100 µM

N#Cc1c2c([nH]c(=O)c1C#N)CCCC2
inactive: NCI-H23 > 100 µM | NCI-H460 > 100 µM | NCI/ADR-RES > 100 µM | MCF7 > 100 µM | NCI-H226 > 100 µM | HT-29 > 100 µM | M14 > 100 µM | K562 > 100 µM | A549 > 100 µM | IGROV-1 > 100 µM | SK-MEL-2 > 100 µM | DU-145 > 100 µM | UO-31 > 100 µM | BT-549 > 100 µM | CAKI-1 > 100 µM | Malme-3M > 100 µM | UACC-257 > 100 µM | Hs-578T > 100 µM

O=C(Nc1ccc2ccccc2c1)Nn1cnnc1
inactive: NCI-H23 > 100 µM | NCI-H460 > 100 µM | MCF7 > 100 µM | NCI-H226 35.3 µM | HT-29 > 100 µM | M14 > 100 µM | NCI-H522 > 100 µM | K562 > 100 µM | A549 > 100 µM | IGROV-1 > 100 µM | SK-MEL-2 > 100 µM | DU-145 > 100 µM | UO-31 80.4 µM | BT-549 > 100 µM | CAKI-1 > 100 µM | Malme-3M > 100 µM | UACC-257 > 100 µM | Hs-578T > 100 µM

O=C(CC(=O)N1N=C(N2c3ccccc3Sc3ccccc32)CC1c1ccccc1)Nc1ccccc1Cl (centres undefined)
inactive: NCI-H23 > 100 µM | NCI-H460 > 100 µM | NCI/ADR-RES > 100 µM | NCI-H226 > 100 µM | HT-29 > 100 µM | M14 > 100 µM | NCI-H522 > 100 µM | K562 > 100 µM | A549 > 100 µM | IGROV-1 > 100 µM | SK-MEL-2 > 100 µM | DU-145 > 100 µM | UO-31 > 100 µM | BT-549 > 100 µM | CAKI-1 > 100 µM | UACC-257 > 100 µM | Hs-578T > 100 µM
